Test results taken from article PMC4493117, “Characterization of the Prokaryotic Sodium Channel NavSp Pore with a Microfluidic Bilayer Platform” (PLoS ONE, 2015).

Target: NavSp pore (Ruegeria pomeroyi, UniProt Q6TMY8)
Conditions: drug added to both sides of bilayer; 0.5 M NaCl, 10 mM HEPES, pH 7.4; room temperature; POPE:POPG 1:1

NavSp pore, sequence (Q6TMY8 114-258 limits assumed): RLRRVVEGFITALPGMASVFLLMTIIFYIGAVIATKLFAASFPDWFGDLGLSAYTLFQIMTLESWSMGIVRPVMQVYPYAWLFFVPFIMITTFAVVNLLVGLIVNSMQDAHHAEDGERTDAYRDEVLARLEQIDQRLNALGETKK

IC50: 2950 nM
Compound: COC(=O)C1=C(C)NC(C)=C(C(=O)OC)C1c1ccccc1[N+](=O)[O-] [nifedipine]
